Measured values: US4822907A, “Method for recovering α-L-aspartyl-L-phenylalanine methyl ester” (Ajinomoto Co., Inc., priority 1986, dated 1989)
Read-outs that look alike come from different tables or passages of the source. Residues, ends and D or L forms follow the SMILES beside them.

How the values were obtained:
[1] = Desalting and concentration of neutralized mother liquor on flat reverse osmosis membrane; residual rate (Example 2, Table 2); assay type: physicochemical; conditions: pH 5.2, 25°, 40 kg/cm^2 G
Procedure: Next, water was added until the volume became the original volume. Further by repeating similar operation, the system was desalted and concentrated until the volume became half of the original volume.

[2] = Desalting and concentration of raw solution on spiral polyamide reverse osmosis membranes; inhibition rate of each component (Example 1, Table 1); assay type: physicochemical; conditions: for Inhibition Rate: 40 kg/cm^2
Procedure: Desalting and concentration were performed, while cyclizing and mixing a non-permeation solution to and with the raw solution.
From the composition of the permeation liquid exhausted in this case, the inhibition rate of each component was calculated according to the following equation. [formula]
Analysis method: liquid chromatography (α-A(M)PM, α-APM, α-AP), (Cl^-).

[3] = Permeability of valuable matters through reverse osmosis membranes (general findings); conditions: in words; for permeability of valuable matters: reverse osmosis membrane having NaCl inhibition rate of approximately 30% or more
[4] = not told
[5] = cited from earlier work
[6] = Polyamide Type (A), NaCl inhibition rate 50%
[7] = Polysulfone Type (B), NaCl inhibition rate 25%, comparison
[8] = membrane NaCl inhibition rate 15% (control), immediately after permeation started, pH 4.54, 20° C.
[9] = membrane NaCl inhibition rate 15% (control), when concentrated to 2.5 times, 20° C.
[10] = membrane NaCl inhibition rate 30%, immediately after permeation started, pH 4.54, 20° C.
[11] = membrane NaCl inhibition rate 30%, when concentrated to 2.5 times, 20° C.
[12] = membrane NaCl inhibition rate 60%, immediately after permeation started, pH 4.54, 20° C.
[13] = membrane NaCl inhibition rate 60%, when concentrated to 2.5 times, 20° C.
[14] = membrane NaCl inhibition rate 80%, immediately after permeation started, pH 4.54, 20° C.
[15] = membrane NaCl inhibition rate 80%, when concentrated to 2.5 times, 20° C.

Row | SMILES | Residual Rate [1, 6] [%] | Residual Rate [1, 7] [%] | permeability for reverse osmosis membranes [3] | permeability of valuable matters [3] | permeability through membrane ([2]; in words, conclusion of Example 1) | permeability for reverse osmosis membranes [4] | permeability of valuable matters [4] | Inhibition Rate [2, 8] [%] | Inhibition Rate [2, 9] [%] | Inhibition Rate [2, 10] [%] | Inhibition Rate [2, 11] [%] | Inhibition Rate [2, 12] [%] | Inhibition Rate [2, 13] [%] | Inhibition Rate [2, 14] [%] | Inhibition Rate [2, 15] [%] | stability in aqueous solution ([5]; high temperatures or acidic media) | stability in aqueous solution ([5]; temperatures lower than normal ambient temperatures)
1 | Cl.N [NH4 Cl] | 50.4 | 32.5 |  |  |  |  |  |  |  |  |  |  |  |  |  |  | 
2 | [Cl-].[Na+] [NaCl, sodium chloride] |  |  |  |  |  |  |  | 11.0 | 9.3 | 23.5 | 19.4 | 60.3 | 56.5 | 85.6 | 82.3 |  | 
3 | COC(=O)C[C@H](N)C(=O)N[C@@H](Cc1ccccc1)C(=O)O [α-A(M)P, methyl ester at the L-aspartic acid β-carboxy residue of α-L-aspartyl-L-phenylalanine] (H-Asp(OMe)-Phe-OH) | 97.8 | 60.8 | low permeability | low |  |  |  |  |  |  |  |  |  |  |  |  | 
4 | N[C@@H](CC(=O)O)C(=O)N[C@@H](Cc1ccccc1)C(=O)O [α-AP, α-L-aspartyl-L-phenylalanine] (H-Asp-Phe-OH) | 98.7 | 68.9 | low permeability | low |  |  |  | 81.5 | 85.6 | 98.8 | 98.3 | 99.5 | 99.7 | 99.7 | 99.9 |  | 

Further lines, with some results ahead:

Row | Residual Rate [1, 6] [%] | Residual Rate [1, 7] [%] | permeability for reverse osmosis membranes [3] | permeability of valuable matters [3] | permeability through membrane ([2]; in words, conclusion of Example 1) | permeability for reverse osmosis membranes [4] | permeability of valuable matters [4] | SMILES | Inhibition Rate [2, 8] [%] | Inhibition Rate [2, 9] [%] | Inhibition Rate [2, 10] [%] | Inhibition Rate [2, 11] [%] | Inhibition Rate [2, 12] [%] | Inhibition Rate [2, 13] [%] | Inhibition Rate [2, 14] [%] | Inhibition Rate [2, 15] [%] | stability in aqueous solution ([5]; high temperatures or acidic media) | stability in aqueous solution ([5]; temperatures lower than normal ambient temperatures)
5 | 80.3 | 48.2 | especially high permeability | low | specifically readily permeable |  |  | COC(=O)C[C@H](N)C(=O)N[C@@H](Cc1ccccc1)C(=O)OC [α-A(M)PM, methyl ester of the L-aspartic acid β-carboxyl residue of α-L-aspartyl-L-phenylalanine methyl ester] (H-Asp(OMe)-Phe-OMe) | 56.7 | 59.3 | 82.7 | 84.1 | 91.0 | 92.2 | 93.1 | 93.9 |  | 
6 | 98.0 | 60.8 |  |  |  | low permeability | low | COC(=O)[C@H](Cc1ccccc1)NC(=O)[C@@H](N)CC(=O)O [α-APM, α-L-aspartyl-L-phenylalanine methyl ester] (H-Asp-Phe-OMe) | 74.1 | 79.2 | 96.2 | 97.7 | 99.1 | 99.3 | 99.0 | 99.6 | readily undergoes various undesirable reactions | relatively stable
